Measurements taken from patent US4217366A, “Pharmaceutically active 2-(4-aminobutoxy)stilbenes” (Mitsubishi Chemical Industries, Ltd., priority 1978, dated 1980).

Columns and labels:
[1] = LD50 in mice, method of Litchfield-Wilcoxon; assay type: in vivo; settings: mouse, in vivo, po
Method: (§1) Animals used were ddy strain male mice (20-22 g) and Wistar strain male rats (150-170 g).
(§2) LD50 was calculated by the method of Litchfield-Wilcoxon (J. T. Litchfield and F. Wilcoxon, J. Pharmacol. exp. Therap., 96 99 (1949)).

[2] = tested on: pentylenetetrazol (PTZ) convulsion; assay: Anti-PTZ action: protection against tonic extensor (TE) induced by intraperitoneal pentylenetetrazol (100 mg/kg i.p.); assay type: in vivo, ddy strain male mice; settings: for ED50 / inhibition at 50 mg/kg: Mus musculus; for inhibition at 50 mg/kg: at 50 mg/kg po (given as <50*)
Method: (§3) Animals used were ddy strain male mice (20-22 g) and Wistar strain male rats (150-170 g). Anticonvulsant actions were determined by the ability of the compounds to prevent pentylenetetrazol (PTZ) convulsion and maximal electroshock seizure (MES), using 8 mice per group. Anti-PTZ action was judged by the protection against tonic extensor (TE) induced by intraperitoneal injection of PTZ (100 mg/kg i.p.) (K. Nakamura et al., Arch. int. Pharmacodyn., 156 261 (1965)). The results were expressed as 50% effective dose (ED50, mg/kg po) or an inhibition percentage at certain doses used.

[3] = tested on: maximal electroshock seizure (MES); assay: Anti-MES action: protection against tonic extensor (TE) induced by electroshock via a pair of ear electrodes; assay type: in vivo, ddy strain male mice
Method: as §3, with “Anti-MES” for “Anti-PTZ”, “was also” for “was”, “TE” for “tonic extensor (TE)”, “electroshock via a pair” for “intraperitoneal injection”, “ear electrodes ([…]” for “PTZ (100 mg/kg i.p.) (K. Nakamura et”, “J. Pharmacol. exp. Therap., 127 55 (1959)).” for “Arch. int. Pharmacodyn., 156 261 (1965)).”

[4] = LD50 in rats, method of Litchfield-Wilcoxon
Method: as §1, §2

[5] = in vivo
Method: as §2

[6] = tested on: maximal electroshock seizure (MES) and pentylenetetrazol (PTZ) convulsion; assay: antiepileptic efficacy (anti-MES and anti-PTZ) compared with trimethadione and methotoin; assay type: in vivo, ddy strain male mice; settings: from Table 2
Method: as §3, with “(1965)). Anti-MES action was also judged by the protection against TE induced by electroshock via a pair of ear electrodes ([…] al., J. Pharmacol. exp. Therap., 127 55 (1959)).” for “(1965)).”

Mice = assay: LD50 in mice, method of Litchfield-Wilcoxon; assay type: in vivo; settings: mice, po
Method: as §1, §2

Rat = settings: po, from "Iyakuhin Kenkyuho" (page 258), Asakura Shoten (1968); cited from earlier work
grand-mal seizure = settings: well known antiepileptic agent; cited from earlier work
peti-mal seizure = settings: well known antiepileptic agent; cited from earlier work
[7] = 50% effective dose, po, PTZ 100 mg/kg i.p., 8 mice per group
[8] = Mus musculus, 50% effective dose, po, 8 mice per group

SMILES	LD50 ([1]; mice) [mg/kg]	ED50 [2, 7] [mg/kg]	ED50 [3, 8] [mg/kg]	antiepileptic efficacy [6]	inhibition at 50 mg/kg [2] [%]	also measured
CNCCCCOc1ccccc1C=Cc1ccccc1 [compound 2]	839	22.5	60			
CN(C)CCCCOc1ccccc1C=Cc1ccccc1.Cl [Example 1, 2-(4-dimethylaminobutoxy)stilbene hydrochloride]	1300	17.8	38	much greater than that of trimethadione and methotoin		LD50 ([4]; in vivo; rat, po): 2000 mg/kg; level of toxicity [5]: low level of toxicity
CCCN1CCN(CCCCOc2ccccc2C=Cc2ccccc2)CC1 [compound 8]		< 50			85	inhibition at 50 mg/kg ([3]; Mus musculus, at 50 mg/kg po): 40%
OCCN1CCN(CCCCOc2ccccc2C=Cc2ccccc2)CC1 [compound 4]	1050	16.3	76.1			
C(=Cc1ccccc1OCCCCN1CCCCC1)c1ccccc1 [compound 5]	621	< 50	60		100	
OC1CCCN(CCCCOc2ccccc2C=Cc2ccccc2)C1 (stereo not drawn) [compound 6]	415	14	20	much greater than that of trimethadione and methotoin		
CN1CCN(CCCCOc2ccccc2C=Cc2ccccc2)CC1 [compound 3]		21.1	35.5	much greater than that of trimethadione and methotoin		LD50 [1]: 1050 mg/kg; LD50 ([4]; rat, in vivo, po): 2300 mg/kg; level of toxicity [5]: low level of toxicity
CCC1(c2ccccc2)NC(=O)N(C)C1=O (stereo not drawn) [Methotoin, reference compound]						LD50 Mice (Mice): 475 mg/kg PO; LD50 Rat (literature) (Rat): 2,500 mg/kg PO; ED50 Anti-PTZ [2, 7]: 51.9 mg/kg PO; effectiveness against grand-mal seizure (grand-mal seizure): effective against grand-mal seizure; ED50 Anti-MES ([3]; 50% effective dose, po, 8 mice per group): 91.3 mg/kg PO
C(=Cc1ccccc1OCCCCN1CCCC1)c1ccccc1 [compound 7]	600	< 50	65		87.5	
CN1C(=O)OC(C)(C)C1=O [Trimethadione, reference compound]	2200	230	1180			effectiveness against peti-mal seizure (peti-mal seizure): effective against peti-mal seizure
